Like-named read-outs stand apart in the source and are kept apart here.
Experiments:
NCI-H522 (NSCLC) = test: NCI 60 one dose screen; assay type: cell-based, human; conditions: Non-small Cell Lung Cancer
SF-295 = test: NCI 60 one dose screen; assay type: cell-based, human; conditions: one dose; CNS Cancer; SF-295
SF-539 = test: NCI 60 one dose screen; assay type: cell-based, human; conditions: one dose; CNS Cancer; SF-539
[1] = system: 60 different human tumor cell lines; conditions: for GI50 / TGI: five dose
[2] = A549/ATCC (Non-small Cell Lung Cancer)
[3] = HOP-62 (Non-small Cell Lung Cancer)
[4] = HOP-92 (Non-small Cell Lung Cancer)
[5] = MDA-MB-231/ATCC (Breast Cancer)
[6] = NCI-H23 (Non-small Cell Lung Cancer)
[7] = NCI-H322M (Non-small Cell Lung Cancer)
[8] = NCI-H460 (Non-small Cell Lung Cancer)
[9] = NCI-H522 (Non-small Cell Lung Cancer)

(1S,2R,13R,14S,18S)-7-(2,4-dimethylanilino)-2,18-dimethyl-6-thia-8-azapentacyclo[11.7.0.02,10.05,9.014,18]icosa-5(9),7,10-trien-17-one [IIa.14]
Growth Percent (NCI-H522 (NSCLC)): 24.64% | Growth Percent (SF-295): 63.77% | Growth Percent (SF-539): 8.46% | CC50 [1]: > 100 µM | GI50 ([1]; 786-0 (Renal Cancer)): 1.62 µM | TGI ([1]; 786-0 (Renal Cancer)): 3.07E−6 | GI50 ([1]; A498 (Renal Cancer)): 2.54 µM | GI50 [1, 2]: 3.5 µM | TGI [1, 2]: >1.00E−4 | GI50 ([1]; ACHN (Renal Cancer)): 2.08 µM | TGI ([1]; ACHN (Renal Cancer)): 4.53E−6 | GI50 ([1]; BT-549 (Breast Cancer)): 1.49 µM | TGI ([1]; BT-549 (Breast Cancer)): 2.94E−6 | GI50 ([1]; CAKI-1 (Renal Cancer)): 2.83 µM | TGI ([1]; CAKI-1 (Renal Cancer)): >1.00E−4 | GI50 ([1]; CCRF-CEM (Leukemia)): 2.45 µM | TGI ([1]; CCRF-CEM (Leukemia)): >1.00E−4 | GI50 ([1]; COLO 205 (Colon Cancer)): 2.5 µM | TGI ([1]; COLO 205 (Colon Cancer)): 6.54E−6 | GI50 ([1]; DU-145 (Prostate Cancer)): 2.04 µM | TGI ([1]; DU-145 (Prostate Cancer)): 5.18E−6 | GI50 ([1]; EKVX (Non-small Cell Lung Cancer)): 2.13 µM | GI50 ([1]; HCC-2998 (Colon Cancer)): 1.9 µM | TGI ([1]; HCC-2998 (Colon Cancer)): 3.74E−6 | GI50 ([1]; HCT-15 (Colon Cancer)): 2.68 µM | GI50 ([1]; HCT-116 (Colon Cancer)): 1.49 µM | TGI ([1]; HCT-116 (Colon Cancer)): 2.85E−6 | GI50 ([1]; HL-60(TB) (Leukemia)): 2.47 µM | TGI ([1]; HL-60(TB) (Leukemia)): 6.03E−6 | GI50 [1, 3]: 2.43 µM | TGI [1, 3]: 6.92E−6 | GI50 [1, 4]: 1.72 µM | TGI [1, 4]: 3.86E−6 | GI50 ([1]; HS 578T (Breast Cancer)): 3.75 µM | TGI ([1]; HS 578T (Breast Cancer)): >1.00E−4 | GI50 ([1]; HT29 (Colon Cancer)): 2.55 µM | TGI ([1]; HT29 (Colon Cancer)): 7.04E−6 | GI50 ([1]; IGROV1 (Ovarian Cancer)): 2.11 µM | TGI ([1]; IGROV1 (Ovarian Cancer)): 5.14E−6 | GI50 ([1]; K-562 (Leukemia)): 2.86 µM | TGI ([1]; K-562 (Leukemia)): >1.00E−4 | GI50 ([1]; KM12 (Colon Cancer)): 2.78 µM | GI50 ([1]; LOX IMVI (Melanoma)): 1.64 µM | TGI ([1]; LOX IMVI (Melanoma)): 3.13E−6 | GI50 ([1]; M14 (Melanoma)): 1.85 µM | TGI ([1]; M14 (Melanoma)): 3.79E−6 | GI50 ([1]; MALME-3M (Melanoma)): 1.99 µM | TGI ([1]; MALME-3M (Melanoma)): 5.55E−6 | GI50 ([1]; MCF7 (Breast Cancer)): 2.31 µM | TGI ([1]; MCF7 (Breast Cancer)): >1.00E−4 | GI50 [1, 5]: 2.33 µM | TGI [1, 5]: 7.92E−6 | GI50 ([1]; MDA-MB-435 (Melanoma)): 3.02 µM | TGI ([1]; MDA-MB-435 (Melanoma)): >1.00E−4 | GI50 ([1]; MDA-MB-468 (Breast Cancer)): 1.93 µM | TGI ([1]; MDA-MB-468 (Breast Cancer)): 3.93E−6 | GI50 ([1]; MOLT-4 (Leukemia)): 2.49 µM | TGI ([1]; MOLT-4 (Leukemia)): >1.00E−4 | GI50 [1, 6]: 2.01 µM | TGI [1, 6]: 4.85E−6 | GI50 ([1]; NCI-H226 (Non-small Cell Lung Cancer)): 2.35 µM | GI50 [1, 7]: 4.28 µM | TGI [1, 7]: >1.00E−4 | GI50 [1, 8]: 2.7 µM | TGI [1, 8]: 8.39E−6 | GI50 [1, 9]: 1.68 µM | TGI [1, 9]: 3.28E−6 | GI50 ([1]; NCI/ADR-RES (Ovarian Cancer)): 2.9 µM | TGI ([1]; NCI/ADR-RES (Ovarian Cancer)): >1.00E−4 | GI50 ([1]; OVCAR-3 (Ovarian Cancer)): 2.18 µM | TGI ([1]; OVCAR-3 (Ovarian Cancer)): 5.03E−6 | GI50 ([1]; OVCAR-4 (Ovarian Cancer)): 2.83 µM | TGI ([1]; OVCAR-4 (Ovarian Cancer)): >1.00E−4 | GI50 ([1]; OVCAR-5 (Ovarian Cancer)): 2.9 µM | TGI ([1]; OVCAR-5 (Ovarian Cancer)): >1.00E−4 | GI50 ([1]; OVCAR-8 (Ovarian Cancer)): 2.63 µM | TGI ([1]; OVCAR-8 (Ovarian Cancer)): 7.26E−6 | GI50 ([1]; PC-3 (Prostate Cancer)): 1.86 µM | TGI ([1]; PC-3 (Prostate Cancer)): 4.53E−6 | GI50 ([1]; RXF 393 (Renal Cancer)): 1.74 µM
